Like-named read-outs stand apart in the source and are kept apart here.
What was measured:
Format in all cases: cell-based
HepG2 cells = assay: MTT assay, cell viability of HepG2 cells
Experimental: (§1) HepG2 cells (1 × 10^4 cells/well) or RAW264.7 cells ([…]) were incubated in 96T wells for 24 h. Then, HepG2 cells were treated with compounds or Adriamycin for 48 h. In addition, RAW264.7 cells were treated with compounds for 24 h. Then, 0.5% MTT (Sigma, Saint Louis, MO, USA) was added to 20 μL/well for 3.5 h. The supernatant was discarded, and DMSO (150 μL/well) was added to dissolve the purple formazan. Cells were agitated for 15 min at room temperature, and the absorbance at 490 nm was recorded by SpetraMax M2 (Molecular Devices, San Jose, CA, USA).

Huh-7 cells = assay: MTT assay, cell viability of Huh-7 cells; conditions: Homo sapiens, Huh-7; MTT; read-out: Huh-7 IC50
Excerpt: 2. The anti-proliferation of compound 5 on Huh-7 cells
We tested another hepatoma cell line (Huh-7) to validate effect of compound 5. L02 (normal hepatocytes), HepG2 and Hub-7 cells were used to discuss the effect of 5. […]
of 5 on Huh-7 cell was (24.49±[…]) μM (Table S1). The morphology and apoptosis of the cells by reversed microscope and flow cytometry, respectively.
Second, the expression and phosphorylation of ATP1A1 were detected by Western blot analysis in L02, HepG2 and Huh-7 cells. Compared with L02 group, the expression of ATP1A1 was higher in HepG2 and Huh-7 cells, but there was no significant difference in the phosphorylation of ATP1A1 (Figure […]
At last, the effect of 5 on the expression and the phosphorylation of ATP1A1 in Huh-7 cells was […]
the phosphorylation of ATP1A1. The result was consistent with that observed in HepG2 cells (Figure […]
Table S1 Cell viability of Huh-7 cell treated by compound 5

[1] = system: NO production of LPS-stimulated RAW264.7 cells; assay: Nitric oxide production in LPS-stimulated RAW264.7 cells (Griess); conditions: LPS (1 μg/mL)-stimulated RAW264.7 cells, 24 h, read-out: RAW264.7 IC50 (inhibition of nitric oxide production)
Experimental: (§2) RAW264.7 cells (8 × 10^4 cells/well) were incubated in 96T wells with DMEM for 24 h and then treated with compounds and LPS (1 μg/mL) for 24 h; this included the control group and LPS group. Then, the cell supernatant was collected for nitric oxide production assay. Next, 100 uL/well PBS was added to 96T wells, then 0.5% MTT (Sigma, Saint Louis, MO, USA) was added to 20 μL/well for 3.5 h. DMSO (150 μL/well) was added to dissolve the purple formazan. Cells were agitated for 15 min at room temperature, and the absorbance at 490 nm was recorded by SpetraMax M2 (Molecular Devices, San Jose, CA, USA). The NO inhibition rate (%) = (ODLPS group − ODcompound group)/(ODLPS group-ODcontrol group) × 100%. The IC50 value refers to the inhibitory of nitric oxide production of LPS-stimulated RAW264.7 cells. Then, 70 uL of each cell supernatant sample was added into a new 96T plate, and Griess A and Griess B were added separately. Then, the absorbance value at 540 nm was detected and then brought into the standard curve to assay the concentration of NO. The cell survival rate (%) = (ODcompound group − ODblank group)/(ODcontrol group − ODblank group) × 100%. The half concentration of the cell death (CC50) value refers to the concentration of compound 5 when 50% of RAW264.7 cells die. The iNOS inhibitor ([…], L-NMMA) was selected as the positive control. The levels of cytokines (IL-1β, IFN-γ, IL-10, TNF-α, and IL-6) in the cell supernatant were determined using an ELISA kit (Novus Biologicals, Shanghai, China, Lot: 834472, 770118, 772051, 486956, 602865). When the process was conducted according to the manufacturer’s instructions, the absorbance was read at 450 nm/570 nm in a SpectraMax 340PC microplate spectrophotometer (Molecular Devices, San Jose, CA, USA).

RAW264.7 cells = assay: MTT assay, cell viability of RAW264.7 cells; conditions: half inhibitory of RAW264.7 cells, 24 h
Experimental: as §1, §2

ATP1A1 = ATP1A1 (Homo sapiens, UniProt P05023); assay: ATP1A1 level and location in HepG2 cells (western blot, fluorescence staining, lysosomal colocalization); set-up: we focused on the regulatory effect of 5 on ATP1A1 in HepG2 cells; endogenous in cells; host or cells: HepG2; conditions: HepG2; 5 25 μmol∙L−1, digitonin 10, MK 2206 40, FR 180204 200 nmol∙L−1; western blot
Experimental: HepG2 cells (4 × 10^5 cells/well) were incubated in confocal dishes with DMEM for 24 h and then treated with compounds for 48 h. Then, the cells were treated with 0.1% Triton X-100 for 10 min and washed with PBS five times. Finally, the cells were dyed with anti-ATP1A1 at 4 °C overnight. Nuclear staining with DAPI (1 μg∙mL^−1) was added for 7 min in the dark, and the cells were washed. The stained images were captured under a laser scanning confocal microscope (Nikon A1 AIR MP+, Tokyo, Japan). HepG2 cells (5 × 10^5 cells/well) were incubated in 6-well plates in complete DMEM. Cells were treated with compounds for 24 h. Then, the cells were stained with Annexin V/PI for 30 min at 4 °C in the dark, and apoptosis analysis was carried out by laser scanning confocal microscopy.
Protein samples were prepared using a RIPA lysis buffer. The concentration of the protein was analyzed using a nucleic acid and protein microanalyzer (Molecular Devices, San Jose, CA, USA). SDS–PAGE was performed to separate the proteins, which were then electrotransferred onto a PVDF membrane. The membrane was incubated with antibodies at 4 °C overnight. Next, the membrane was washed and incubated with an HRP-conjugated secondary antibody (Beyotime, BeiJing, China). Finally, signals were detected by the ECL method (Beyotime, BeiJing, China) and analyzed using ImageJ software.

[2] = MTT assay, cell viability of RAW264.7 cells; conditions: mouse, half inhibitory of RAW264.7 cells
Experimental: as §1, §2

Compound | IC50 [1] [µM] | IC50 (HepG2 cells; 48 h) [µM] | CC50 (RAW264.7 cells) [µM] | other results
COc1cccc2c1C(=O)c1c(O)c3c(c(O)c1C2=O)C[C@@](O)(C(=O)CO)C[C@@H]3O[C@H]1C[C@H](N)[C@H](O)[C@H](C)O1 [Adr, adriamycin, reference compound] |  |  |  | IC50 (HepG2 cells; Homo sapiens, HepG2, 48 h): 6.93 ± 1.23 µM; IC50 (HepG2 cells; Homo sapiens, HepG2, fractions A–E, 48 h): 5.98 ± 2.06 µg/mL; IC50 (Huh-7 cells): 4.49 ± 0.96 µM
Cynotophylloside B [Compound 2] | 9.1 ± 2.27 | 41.1 ± 6.05 | > 50 | 
Eupokanu G [Compound 1] | > 50 | 46.4 ± 3.09 | > 50 | 
C[C@@H]1CC[C@@]2(OC1)O[C@H]1[C@@H](O)[C@H]3[C@@H]4CC[C@H]5C[C@@H](O[C@@H]6O[C@H](CO)[C@H](O[C@@H]7O[C@H](CO)[C@@H](O)[C@H](O[C@@H]8OC[C@@H](O)[C@H](O)[C@H]8O)[C@H]7O[C@@H]7O[C@H](CO)[C@H](O)[C@H](O[C@@H]8O[C@H](CO)[C@@H](O)[C@H](O)[C@H]8O)[C@H]7O)[C@H](O)[C@H]6O)[C@H](O)C[C@]5(C)[C@H]4CC[C@]3(C)[C@H]1[C@@H]2C [digitonin, reference compound] |  |  |  | expression of ATP1A1 (comparison with inhibitors) (ATP1A1): not similarly observed
[H]/N=C(/NC)NCCC[C@H](N)C(=O)O [L-NMMA, NG-monnomycin-L-arginine, reference compound] |  |  |  | IC50 ([1]; Mus musculus): 21.2 ± 3.26 µM; CC50 at 24 h [2]: > 50 µM
CC(=O)[C@]1(O)CC[C@@]2(O)[C@]1(C)[C@H](O)C[C@@H]1[C@@]3(C)CC[C@H](O)CC3=CC[C@]12O [Compound 3, Deacylmetaplexigenin] | > 50 | > 50 | > 50 | 
Nc1[nH]nc2nnc(-c3c(-c4ccccc4)nn4ccccc34)cc12 [FR 180204, reference compound] |  |  |  | expression of ATP1A1 (comparison with inhibitors) (ATP1A1): not similarly observed
CC1(C)CC[C@]2(C(=O)O)CC[C@]3(C)C(=CC[C@@H]4[C@@]5(C)C[C@@H](O)[C@H](O)C(C)(C)[C@@H]5CC[C@]43C)[C@@H]2C1 [Compound 9, Maslinic acid] |  |  |  | IC50 ([1]; Mus musculus): 17.4 ± 2.21 µM; CC50 at 24 h [2]: > 50 µM; IC50 (HepG2 cells; Homo sapiens, HepG2, 48 h): > 50 µM
Kidjoranin 3-O-β-digitoxopyranoside [Compound 11] | > 50 | > 50 | > 50 | 
NC1(c2ccc(-c3nc4ccn5c(=O)[nH]nc5c4cc3-c3ccccc3)cc2)CCC1 [MK 2206, reference compound] |  |  |  | expression of ATP1A1 (comparison with inhibitors) (ATP1A1): not similarly observed
Caudatin 3-O-β-D-digitoxopyranoside [Compound 12] | > 50 | > 50 | > 50 | 
CC(=O)[C@]1(O)CC[C@@]2(O)[C@]1(C)[C@H](OC(=O)/C=C/c1ccccc1)C[C@@H]1[C@@]3(C)CC[C@H](O)CC3=CC[C@]12O [Compound 4, Kidjolanin] | 30.7 ± 4.08 | > 50 | > 50 | 

Further lines, with some results ahead:

IC50 [1] [µM] | IC50 (HepG2 cells; 48 h) [µM] | Compound | CC50 (RAW264.7 cells) [µM] | other results
3.32 ± 0.43 | 27.3 ± 3.48 | Kidjoranin-3-O-β-D-cymaropyranoside [Compound 6] | 35.2 ± 5.12 | 
2.78 ± 0.44 | 22.7 ± 4.02 | Kidjoranin 3-O-α-diginopyranosyl-(1→4)-β-cymaropyranoside [Compound 10] | 24.1 ± 3.24 | 
17.4 ± 3.01 | > 50 | Cynotophylloside J [Compound 8] | > 50 | 
1.77 ± 0.34 | 12.6 ± 2.98 | CO[C@H]1C[C@@H](O[C@H]2[C@H](C)O[C@H](O[C@H]3[C@@H](C)O[C@H](O[C@H]4[C@@H](OC)C[C@H](O[C@@H]5CC[C@]6(C)C(=CCC(=O)[C@H]6C[C@H](OC(=O)/C=C/c6ccccc6)[C@]6(C)C(=O)CC[C@]6(O)[C@@H](C)OC(C)=O)C5)O[C@@H]4C)C[C@H]3OC)C[C@H]2OC)O[C@H](C)[C@H]1O [Compound 7, Wilfoside G] | 26.2 ± 2.22 | 

Reference: article PMC10058894, “Bioactive C21 Steroidal Glycosides from Euphorbia kansui Promoted HepG2 Cell Apoptosis via the Degradation of ATP1A1 and Inhibited Macrophage Polarization under Co-Cultivation” (Molecules, 2023)
